Measured values published in PubChem BioAssay (NCI).
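Tested at 5 concentrations; 48 h exposure; 96-well plates; endpoints linearly interpolated, else capped at highest concentration. The concentration for full growth arrest is given as TGI.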

Tests used:
Assay in all cases: NCI tumour cell line growth inhibition, 48 h
786-0 renal = test system: 786-0 renal
A498 renal = test system: A498 renal
A549 NSCLC = test system: A549 NSCLC
ACHN renal = test system: ACHN renal
CAKI-1 renal = test system: CAKI-1 renal
CCRF-CEM leukemia = test system: CCRF-CEM leukemia
COLO 205 colon = test system: COLO 205 colon
DLD-1 colon = test system: DLD-1 colon
DMS 273 small cell lung = test system: DMS 273 small cell lung
EKVX NSCLC = test system: EKVX NSCLC
HCC-2998 colon = test system: HCC-2998 colon
HCT-116 colon = test system: HCT-116 colon
HCT-15 colon = test system: HCT-15 colon
HL-60(TB) leukemia = test system: HL-60(TB) leukemia
HOP-18 NSCLC = test system: HOP-18 NSCLC
HOP-62 NSCLC = test system: HOP-62 NSCLC
HOP-92 NSCLC = test system: HOP-92 NSCLC
HT29 colon = test system: HT29 colon
IGROV1 ovarian = test system: IGROV1 ovarian
K-562 leukemia = test system: K-562 leukemia
KM12 colon = test system: KM12 colon
KM20L2 colon = test system: KM20L2 colon
LOX IMVI melanoma = test system: LOX IMVI melanoma
M14 melanoma = test system: M14 melanoma
M19-MEL melanoma = test system: M19-MEL melanoma
MALME-3M melanoma = test system: MALME-3M melanoma
MOLT-4 leukemia = test system: MOLT-4 leukemia
NCI-H226 lung = test system: NCI-H226 lung
NCI-H23 lung = test system: NCI-H23 lung
NCI-H460 lung = test system: NCI-H460 lung
NCI-H522 lung = test system: NCI-H522 lung
OVCAR-3 ovarian = test system: OVCAR-3 ovarian
OVCAR-4 ovarian = test system: OVCAR-4 ovarian
OVCAR-5 ovarian = test system: OVCAR-5 ovarian
OVCAR-8 ovarian = test system: OVCAR-8 ovarian
RPMI-8226 leukemia = test system: RPMI-8226 leukemia
RXF 393 renal = test system: RXF 393 renal
SF-268 CNS = test system: SF-268 CNS
SF-295 CNS = test system: SF-295 CNS
SF-539 CNS = test system: SF-539 CNS
SK-MEL-2 melanoma = test system: SK-MEL-2 melanoma
SK-MEL-28 melanoma = test system: SK-MEL-28 melanoma
SK-MEL-5 melanoma = test system: SK-MEL-5 melanoma
SK-OV-3 ovarian = test system: SK-OV-3 ovarian
SN12C renal = test system: SN12C renal
SNB-19 CNS = test system: SNB-19 CNS
SNB-75 CNS = test system: SNB-75 CNS
SNB-78 CNS = test system: SNB-78 CNS
SR leukemia = test system: SR leukemia
SW-620 colon = test system: SW-620 colon
TK-10 renal = test system: TK-10 renal
U251 CNS = test system: U251 CNS
UACC-257 melanoma = test system: UACC-257 melanoma
UACC-62 melanoma = test system: UACC-62 melanoma
UO-31 renal = test system: UO-31 renal
BT-549 breast = test system: BT-549 breast
DU-145 prostate = test system: DU-145 prostate
HS 578T breast = test system: HS 578T breast
MCF7 breast = test system: MCF7 breast
MDA-MB-231 breast = test system: MDA-MB-231 breast
MDA-MB-435 = test system: MDA-MB-435
MDA-N = test system: MDA-N
NCI/ADR-RES ovarian = test system: NCI/ADR-RES ovarian
PC-3 prostate = test system: PC-3 prostate
T-47D breast = test system: T-47D breast

`CC1=C(C(=O)CC(=O)C(=O)Nc2ccccc2C)Sc2ccccc2N1` showed a TGI (786-0 renal) greater than 69.1 µM, a TGI (A498 renal) greater than 100 µM and a TGI (A549 NSCLC) greater than 100 µM. The TGI (ACHN renal) was greater than 100 µM, the TGI (CAKI-1 renal) was greater than 100 µM and the TGI (CCRF-CEM leukemia) was greater than 100 µM. It also gave a TGI (COLO 205 colon) greater than 61.6 µM, a TGI (DLD-1 colon) greater than 67.9 µM and a TGI (DMS 273 small cell lung) greater than 100 µM. The TGI (EKVX NSCLC) was greater than 100 µM, the TGI (HCC-2998 colon) was greater than 100 µM and the TGI (HCT-116 colon) was greater than 55.8 µM. It also gave a TGI (HCT-15 colon) greater than 100 µM, a TGI (HL-60(TB) leukemia) greater than 100 µM and a TGI (HOP-18 NSCLC) greater than 100 µM. It also gave a TGI (HOP-62 NSCLC) greater than 100 µM, a TGI (HOP-92 NSCLC) greater than 100 µM and a TGI (HT29 colon) greater than 100 µM. For the same compound, the TGI (IGROV1 ovarian) was greater than 100 µM, the TGI (K-562 leukemia) was greater than 100 µM and the TGI (KM12 colon) was greater than 100 µM. The TGI (KM20L2 colon) was greater than 100 µM, the TGI (LOX IMVI melanoma) was greater than 57.4 µM and the TGI (M14 melanoma) was greater than 100 µM. For the same compound, the TGI (M19-MEL melanoma) was greater than 100 µM, the TGI (MALME-3M melanoma) was greater than 100 µM and the TGI (MOLT-4 leukemia) was greater than 100 µM. For the same compound, the TGI (NCI-H226 lung) was greater than 100 µM, the TGI (NCI-H23 lung) was greater than 100 µM and the TGI (NCI-H460 lung) was greater than 56.2 µM. The TGI (NCI-H522 lung) was greater than 100 µM, the TGI (OVCAR-3 ovarian) was greater than 100 µM and the TGI (OVCAR-4 ovarian) was greater than 100 µM. It also gave a TGI (OVCAR-5 ovarian) greater than 100 µM, a TGI (OVCAR-8 ovarian) greater than 100 µM and a TGI (RPMI-8226 leukemia) greater than 65.5 µM. The TGI (RXF 393 renal) was greater than 100 µM, the TGI (SF-268 CNS) was greater than 100 µM and the TGI (SF-295 CNS) was greater than 100 µM. The TGI (SF-539 CNS) was greater than 100 µM, the TGI (SK-MEL-2 melanoma) was greater than 100 µM and the TGI (SK-MEL-28 melanoma) was greater than 100 µM. It also gave a TGI (SK-MEL-5 melanoma) greater than 100 µM, a TGI (SK-OV-3 ovarian) greater than 100 µM and a TGI (SN12C renal) greater than 100 µM. The TGI (SNB-19 CNS) was greater than 100 µM, the TGI (SNB-75 CNS) was greater than 100 µM and the TGI (SNB-78 CNS) was greater than 100 µM. For the same compound, the TGI (SR leukemia) was greater than 100 µM, the TGI (SW-620 colon) was greater than 54.1 µM and the TGI (TK-10 renal) was greater than 100 µM. The TGI (U251 CNS) was greater than 100 µM, the TGI (UACC-257 melanoma) was greater than 100 µM and the TGI (UACC-62 melanoma) was greater than 100 µM. The TGI (UO-31 renal) was greater than 100 µM.
Work on `Cn1c(CC(O)c2nc3ccccc3n2C)nc2ccccc21` (centres undefined) yielded a TGI (786-0 renal) greater than 68.6 µM, a TGI (A498 renal) greater than 51.1 µM and a TGI (A549 NSCLC) greater than 100 µM. For the same compound, the TGI (ACHN renal) was greater than 33.9 µM, the TGI (BT-549 breast) was greater than 63.2 µM and the TGI (CAKI-1 renal) was greater than 100 µM. For the same compound, the TGI (CCRF-CEM leukemia) was 17.3 µM, the TGI (COLO 205 colon) was greater than 35.8 µM and the TGI (DU-145 prostate) was greater than 21.7 µM. The TGI (EKVX NSCLC) was greater than 100 µM, the TGI (HCC-2998 colon) was greater than 100 µM and the TGI (HCT-116 colon) was greater than 34.9 µM. It also gave a TGI (HCT-15 colon) greater than 49.5 µM, a TGI (HL-60(TB) leukemia) of 4.13 µM and a TGI (HOP-62 NSCLC) greater than 19.1 µM. The TGI (HOP-92 NSCLC) was greater than 38.7 µM, the TGI (HS 578T breast) was greater than 24.2 µM and the TGI (HT29 colon) was greater than 54.3 µM. It also gave a TGI (IGROV1 ovarian) greater than 40.6 µM, a TGI (K-562 leukemia) greater than 47.9 µM and a TGI (KM12 colon) greater than 100 µM. For the same compound, the TGI (LOX IMVI melanoma) was greater than 47.7 µM, the TGI (M14 melanoma) was greater than 49.8 µM and the TGI (MALME-3M melanoma) was greater than 35.5 µM. It also gave a TGI (MCF7 breast) greater than 47.2 µM, a TGI (MDA-MB-231 breast) greater than 53.7 µM and a TGI (MDA-MB-435) greater than 44.4 µM. It also gave a TGI (MDA-N) greater than 100 µM, a TGI (MOLT-4 leukemia) greater than 27.9 µM and a TGI (NCI-H226 lung) greater than 72.3 µM. For the same compound, the TGI (NCI-H23 lung) was greater than 48.6 µM, the TGI (NCI-H460 lung) was greater than 46.9 µM and the TGI (NCI-H522 lung) was greater than 8.21 µM. It also gave a TGI (NCI/ADR-RES ovarian) greater than 67.9 µM, a TGI (OVCAR-3 ovarian) greater than 19.4 µM and a TGI (OVCAR-4 ovarian) greater than 30.1 µM. It also gave a TGI (OVCAR-5 ovarian) greater than 74.3 µM, a TGI (OVCAR-8 ovarian) greater than 47.8 µM and a TGI (PC-3 prostate) greater than 58.8 µM. The TGI (RPMI-8226 leukemia) was greater than 19.1 µM, the TGI (RXF 393 renal) was greater than 39.4 µM and the TGI (SF-268 CNS) was greater than 28.9 µM. For the same compound, the TGI (SF-295 CNS) was greater than 100 µM, the TGI (SF-539 CNS) was greater than 56 µM and the TGI (SK-MEL-2 melanoma) was greater than 58.5 µM. It also gave a TGI (SK-MEL-28 melanoma) greater than 60.9 µM, a TGI (SK-MEL-5 melanoma) greater than 42.8 µM and a TGI (SK-OV-3 ovarian) greater than 45.2 µM. For the same compound, the TGI (SN12C renal) was greater than 57.9 µM, the TGI (SNB-19 CNS) was greater than 87.7 µM and the TGI (SNB-75 CNS) was greater than 100 µM. The TGI (SR leukemia) was greater than 100 µM, the TGI (SW-620 colon) was greater than 47 µM and the TGI (T-47D breast) was greater than 16.7 µM. For the same compound, the TGI (TK-10 renal) was greater than 36.4 µM, the TGI (U251 CNS) was greater than 48.8 µM and the TGI (UACC-257 melanoma) was greater than 47.8 µM. For the same compound, the TGI (UACC-62 melanoma) was greater than 61.5 µM and the TGI (UO-31 renal) was greater than 9.39 µM.
